Laboratory results published in the CheMixHub ionic liquid set.
± gives the uncertainty stated by the source.

Assay: xn = mol fraction of the nth substance listed

CCCC[n+]1ccn(C)c1C.NCC(=O)[O-] + O
100 kPa
Settings | viscosity [mPa·s]
293.15 K, x1 = 0.3904 | 66 ± 13
298.15 K, x1 = 0.0999 | 13.7 ± 2.7
298.15 K, x1 = 0.1982 | 22.2 ± 4.4
298.15 K, x1 = 0.3003 | 34.6 ± 6.9
298.15 K, x1 = 0.6 | 94 ± 19
298.15 K, x1 = 0.6999 | 119 ± 24
298.15 K, x1 = 0.798 | 146 ± 30
303.15 K, x1 = 0.9001 | 125 ± 25
308.15 K, x1 = 0.0999 | 7.8 ± 1.6
308.15 K, x1 = 0.3003 | 20.2 ± 4
308.15 K, x1 = 0.3904 | 28.4 ± 5.7
308.15 K, x1 = 0.6999 | 65 ± 13
313.15 K, x1 = 0.3904 | 23.4 ± 4.7
313.15 K, x1 = 0.9001 | 71 ± 14
318.15 K, x1 = 0.6999 | 46.4 ± 9.3
318.15 K, x1 = 0.798 | 54 ± 11

CCOCC[n+]1ccn(C)c1.O=S(=O)([N-]S(=O)(=O)C(F)(F)F)C(F)(F)F + O
101 kPa, x1 = 0.8424
Settings | viscosity [mPa·s]
283 K | 68.1 ± 1.5
298.1 K | 34 ± 0.8

CC[n+]1ccn(C)c1.[Cl-] + O
viscosity [mPa·s], 100 kPa
Settings | 278.15 K | 283.15 K | 288.15 K | 293.15 K | 298.15 K | 303.15 K | 308.15 K | 313.15 K | 373 K
x1 = 9.063e-05 | 1.528 ± 0.011 | 1.312 ± 0.01 | 1.141 ± 0.009 | 1.004 ± 0.008 | 0.892 ± 0.007 | 0.799 ± 0.006 | 0.72 ± 0.006 | 0.653 ± 0.005 | –
x1 = 0.0001805 | 1.531 ± 0.011 | 1.314 ± 0.01 | 1.144 ± 0.009 | 1.006 ± 0.008 | 0.894 ± 0.007 | 0.8 ± 0.006 | 0.721 ± 0.006 | 0.654 ± 0.005 | –
x1 = 0.0003599 | 1.533 ± 0.011 | 1.317 ± 0.01 | 1.148 ± 0.009 | 1.008 ± 0.008 | 0.896 ± 0.007 | 0.802 ± 0.006 | 0.723 ± 0.006 | 0.655 ± 0.005 | –
x1 = 0.0005394 | 1.538 ± 0.011 | 1.321 ± 0.01 | 1.15 ± 0.009 | 1.011 ± 0.008 | 0.898 ± 0.007 | 0.804 ± 0.006 | 0.724 ± 0.006 | 0.656 ± 0.005 | –
x1 = 0.0007199 | 1.541 ± 0.011 | 1.323 ± 0.01 | 1.152 ± 0.009 | 1.013 ± 0.008 | 0.899 ± 0.007 | 0.805 ± 0.006 | 0.725 ± 0.006 | 0.658 ± 0.005 | –
x1 = 0.0008996 | 1.545 ± 0.012 | 1.327 ± 0.01 | 1.156 ± 0.009 | 1.015 ± 0.008 | 0.902 ± 0.007 | 0.807 ± 0.006 | 0.728 ± 0.006 | 0.659 ± 0.005 | –
x1 = 0.001079 | 1.547 ± 0.012 | 1.329 ± 0.01 | 1.158 ± 0.009 | 1.018 ± 0.008 | 0.904 ± 0.007 | 0.809 ± 0.006 | 0.729 ± 0.006 | 0.661 ± 0.005 | –
x1 = 0.001351 | 1.554 ± 0.012 | 1.335 ± 0.01 | 1.163 ± 0.009 | 1.023 ± 0.008 | 0.908 ± 0.007 | 0.813 ± 0.006 | 0.732 ± 0.006 | 0.664 ± 0.005 | –
x1 = 0.001799 | 1.563 ± 0.012 | 1.344 ± 0.01 | 1.17 ± 0.009 | 1.029 ± 0.008 | 0.914 ± 0.007 | 0.817 ± 0.006 | 0.736 ± 0.006 | 0.667 ± 0.005 | –
x1 = 0.87 | – | – | – | – | – | – | – | – | 23 ± 9
x1 = 0.9302 | – | – | – | – | – | – | – | – | 24 ± 10
x1 = 0.9756 | – | – | – | – | – | – | – | – | 32 ± 13
x1 = 1 | – | – | – | – | – | – | – | – | 36 ± 14
